Like-named read-outs stand apart in the source and are kept apart here.
Key:
CRBN-DDB1 complex = molecular target: T1, CRBN-DDB1 complex (Homo sapiens, UniProt Q96SW2); assay: CRBN/DDB1 fluorescence polarization competition assay; assay type: binding
T1 construct: His6-ZZ-HRV3C (N); made in house; host or cells: Sf9 insect cells (baculovirus co-infection)
Procedure: CRBN/DDB1 Fluorescence Polarization Assay […]
Unless otherwise stated, the aqueous assay buffer contained 0.02 M HEPES((4-(2-hydroxyethyl)-1-piperazineethanesulfonic acid)) pH 8.0, 0.15 M NaCl, 0.5 mM TCEP ((tris(2-carboxyethyl)phosphine)), 0.05% Tween 20. The assay was conducted using 384 well black plates (ProxiPlate F Plus, Perkin-Elmer, Massachusetts, USA).
Plate Reader. […] Fluorescence […]
polarization was measured in units of millipolarization (mP) and are background corrected. Data were plotted and analyzed using […]
All experiments were performed in triplicate unless otherwise stated. Values are quoted as the geometric […]
Each graph is a representative example of a single biological repeat unless otherwise stated.
CRBN/DDB1 Protein Expression & Purification
Protein expression and purification methods adapted from Lopez-Girona et al.5 Full length human CRBN (accession number NM016302) was amplified by PCR & inserted downstream of the polyhedrin promoter of a pFBDM expression vector which had been modified to introduce a N-terminal His6-ZZ-HRV3C tag. Full length human DDB1 (accession number NM001923) was amplified by PCR with primers which introduced a C-terminal StrepTag and inserted downstream of the p10 promoter of a separate pFBDM expression vector. Baculoviruses were generated according to Bac-to-Bac protocols (Invitrogen) and used to co-infect Sf9 cells grown @ 27 °C in shaker flasks using Insect-XPRESS media (Lonza). Cells were harvested 48 hours post infection and frozen. For purification, pellets were thawed & resuspended in 5 volumes of Histrap buffer A (see below) and lysed […]
Superdex 200 (HiLoad 26/600), ResourceQ (6 mL) and finally a second Superdex 200 (HiLoad 26/600) column. All columns were from GE Healthcare and all purification steps were performed @ 4 °C. HisTrap buffer A: 50mM Tris (2-Amino-2-(hydroxymethyl)propane-1,3-diol), 500mM NaCl, 0.5mM TCEP ((tris(2-carboxyethyl)phosphine), 5% glycerol, pH 8.0. HisTrap Buffer B: + 250 mM imidazole. Superdex 200 buffer: 50mM Tris, 200mM NaCl, 0.5mM TCEP, 5% glycerol, pH 8.0. Resource Q buffer A: 50mM Tris, 0.5mM TCEP, 5% Glycerol, pH8.0. Resource Q buffer B + 1M NaCl.
California, USA) to prepare CRBN/DDB1 concentrations from 0.1 to 500 nM in 10 µL final assay volume containing 5 nM FP- […]
point prior to analysis. The KD was calculated using non-linear regression and a one-site specific binding model.
Analysis of competition assay FP-probe bound fraction […]
fb=probe bound fraction, KD=probe dissociation constant, L0=probe concentration, R0=protein concentration, Ki=ligand […]
CRBN/DDB1 Competition Assay
Compounds as solutions in DMSO were dispensed using an ECHO 550 Liquid Handler (Labcyte Inc).
Tracer controls (5 nM FP-probe S18 assay buffer only) and bound tracer controls (5 nM and 80 nM CRBN/DDB1) were included on each assay plate . Plates were incubated overnight at 4 °C before warming to room temperature and fluorescence polarization measured using an EnVision plate reader (Perkin -Elmer, Massachusetts, USA). IC 50 values […]
Table S2. CRBN/DDB1 Control Compounds

[1] = molecular target: T2, pirin protein in SK-OV-3 human ovarian cancer cells (Homo sapiens, UniProt O00625); assay: Pirin depletion in SK-OV-3 cells (immunoblot / capillary electrophoresis immunoassay); assay type: cell-based; settings: SK-OV-3 cells
T2 construct: endogenous in cells; host or cells: SK-OV-3
T2 sequence (O00625 1-290): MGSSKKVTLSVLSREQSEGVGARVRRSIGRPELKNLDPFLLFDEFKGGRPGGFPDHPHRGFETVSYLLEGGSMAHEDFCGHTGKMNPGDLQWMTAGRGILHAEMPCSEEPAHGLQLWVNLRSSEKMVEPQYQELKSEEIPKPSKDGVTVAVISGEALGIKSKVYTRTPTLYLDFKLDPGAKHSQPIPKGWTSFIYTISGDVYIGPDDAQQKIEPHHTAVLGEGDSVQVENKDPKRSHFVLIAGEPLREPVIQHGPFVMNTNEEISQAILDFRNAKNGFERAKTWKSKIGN
Procedure: in vivo in athymic mice to increase its tumorigenicity and reliability as a xenograft, and used within 10 passages of banked stocks.
Prior to use, the cells were analyzed by short tandem repeat (STR) profiling. Polymorphic STR loci were amplified using a polymerase chain reaction (PCR) primer set. The PCR product (each locus being labelled with a different fluorophore) was analyzed simultaneously with size standards using automated fluorescent detection. The number of repeats at 10 different loci (as recommended by the American Type Culture Collection, ATCC) was used to define the STR profile and this was cross-referenced with online databases to confirm authenticity. […]
the ATCC reference line (LGC Promochem, UK). […]
nested PCR protocol (Venor GeM kit, Minerva Biolabs, Germany). Cells were grown in DMEM/10 % FCS, 2 mM glutamine and nonessential amino acids in 5 % CO2.
SK-OV-3 cells were treated as for each experimental condition. Cells were harvested and lysed by scraping in urea lysis buffer (20 mM HEPES pH 8.0, 9 M urea, 1 mM sodium orthovanadate, 2.5 mM sodium pyrophosphate, 1 mM β-glycerophosphate). […]
of samples was determined using a bicinchoninic acid (BCA) protein assay kit (Thermo Fisher Scientific). Western blotting was carried out as previously described.10 Pirin and GAPDH antibodies were obtained from Abcam (ab157212) and Merck […]
Samples were treated, harvested and lysed as described above. A total of 5 μL of 0.2 mg/mL protein was loaded into plates and capillary western analysis was carried out according to the manufacturer’s instructions (ProteinSimple WES). The data was analyzed with the Compass software (ProteinSimple).
Sigma-Aldrich and Cell Signaling Technology, respectively.
10 Sharp SY, Boxall K, Rowlands M, Prodromou C, Roe SM, Maloney A, Powers M, Clarke PA, Box G, Sanderson S, Patterson L, Matthews TP, Cheung KM, Ball K, Hayes A, Raynaud F, Marais R, Pearl L, Eccles S, Aherne W, McDonald E, Workman P. In vitro biological characterization of a novel, synthetic diaryl pyrazole resorcinol class of heat shock protein 90 inhibitors.

[2] = PDP aqueous stability protocol; settings: 37 °C

IC50 (CRBN-DDB1 complex; CRBN/DDB1 FP IC50, single repeat N=2, best-fit value, variable slope four parameters): 323 nM
IC50 (CRBN-DDB1 complex; best-fit value, variable slope four parameters, read-out: CRBN/DDB1 FP IC50, single repeat N=1): 715 nM
IC50 (CRBN-DDB1 complex; best-fit value, variable slope four parameters, read-out: CRBN/DDB1 FP IC50, single repeat N=3): 519 nM
Ki (CRBN-DDB1 complex; calculated from geometric mean CRBN-DDB1 IC50 and FP-probe KD): 120 nM
IC50 (CRBN-DDB1 complex; column statistics, read-out: CRBN/DDB1 FP pIC50, mean of 3 values (unrounded) (converted)): 493 nM
IC50 (CRBN-DDB1 complex; displacement of thalidomide derived fluorescent probe, geometric mean n = 3, read-out: CRBN/DDB1 FP IC50): 490 nM
Pirin degradation ([1]; 50 nM, 2 h exposure, Figure 3A): near complete pirin degradation
Concentration-response shape with increasing concentration ([1]; 50 to 1500 nM, up to 24 h): clear hook effect
Lowest concentration with pirin degradation activity ([1]; 2 h exposure, Figure 3B): 0.5 nM
First-order decay rate constant ([2]; pH 7.4 PBS, n=2, Figure S1): 0.0038 min⁻¹
Half-life (aqueous stability) ([2]; pH 7.4 phosphate buffer): ~3 h
half-life at 100 µM ([2]; phosphate buffer (PBS), pH 7.4, Half-life (aqueous stability), pH 7.4 phosphate buffer): 3 h
SMILES: O=C1CCC(N2C(=O)c3cccc(OCCOCCOCCN4CCN(Cc5ccc6cc(C(=O)Nc7cc(NC(=O)c8ccc9c(c8)OCCO9)ccc7Cl)ccc6n5)CC4)c3C2=O)C(=O)N1 (stereo not drawn) [PDP 16, N-(2-Chloro-5-(2,3-dihydrobenzo[b][1,4]dioxine-6-carboxamido)phenyl)-2-((4-(2-(2-(2-((2-(2,6-dioxopiperidin-3-yl)-1,3-dioxoisoindolin-4-yl)oxy)ethoxy)ethoxy)ethyl)piperazin-1-yl)methyl)quinoline-6-carboxamide]

From PMC5815658 (Journal of Medicinal Chemistry, 2017)
